Assays:
GRK2 [1] = target: T1, GRK2 (Homo sapiens, UniProt P25098); assay: GRK2 Inhibition Assay (TR-FRET, Example 7); assay type: biochemical; details: read-out: B: Enzymatic GRK2: IC50 (nM) (Example 7)
T1 construct: purchased SignalChem A14-10G
T1 sequence (P25098 1-689): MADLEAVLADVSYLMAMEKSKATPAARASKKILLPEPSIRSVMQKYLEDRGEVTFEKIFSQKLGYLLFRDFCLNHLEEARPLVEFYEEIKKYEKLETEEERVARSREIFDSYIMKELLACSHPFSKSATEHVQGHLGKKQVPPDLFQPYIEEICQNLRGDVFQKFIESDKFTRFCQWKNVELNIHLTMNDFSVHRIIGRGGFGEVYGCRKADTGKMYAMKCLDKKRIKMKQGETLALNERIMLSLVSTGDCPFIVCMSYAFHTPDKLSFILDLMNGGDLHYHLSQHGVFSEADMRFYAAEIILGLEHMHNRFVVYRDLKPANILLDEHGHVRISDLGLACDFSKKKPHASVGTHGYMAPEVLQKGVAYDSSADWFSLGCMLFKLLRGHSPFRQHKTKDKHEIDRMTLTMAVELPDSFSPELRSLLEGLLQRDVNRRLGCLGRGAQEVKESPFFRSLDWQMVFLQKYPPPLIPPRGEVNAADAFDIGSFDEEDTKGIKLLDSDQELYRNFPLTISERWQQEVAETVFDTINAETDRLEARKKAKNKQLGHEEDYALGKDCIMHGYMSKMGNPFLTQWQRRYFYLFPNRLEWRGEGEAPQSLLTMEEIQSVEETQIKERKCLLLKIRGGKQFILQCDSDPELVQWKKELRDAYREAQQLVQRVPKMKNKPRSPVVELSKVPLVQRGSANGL
Procedure: Enzyme GRK2 (1 nM final concentration) was diluted in 25 mMv HEPES, 10 mM MgCl2, 2 mM DTT, 0.01% Tween-20, and 1 mM EGTA. Then the GRK2 mixture was added into ProxiPlate-384 white plate and pre-incubated for 30 min with test compounds at room temperature. ATP (7 μM final concentration) and Ulight TopoIIα (50 nM final concentration) were added into the assay plate to initiate the reaction and the mixture was incubated at room temperature for 90 min. Then, Eu anti-TopoIIα (0.12 nM final concentration), BSA (0.01% final concentration), and EDTA (11 mMv final concentration) in LANCE assay buffer were added into each well. After 60 min incubation time at room temperature, TR-FRET signal was measured by EnVision plate reader.

[2] = system: PAXF1657 control empty vector cell line; assay: 7-day proliferation assay, PAXF1657 control empty vector cell line (Example 9); assay type: cell-based; details: 168 h; Cell Line: PAXF1657 empty vector (EV) cell line; 7-day; read-out: C: 7-day proliferation assay: IC50 GeoMean
Summary of the method: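 Read-out is CellTiter-Glo luminescence after 7 days of continuous exposure, with compound re-dosed in fresh medium at day 3. Cells were seeded at 500/well and treated across 30 μM-0.0002 μM (10 points, 0.3% DMSO); baseline viability plates were read at compound addition.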

GRK2 [3] = target: T1, GRK2; assay: ADPGlo GRK2 Inhibition Assay (Example 8); assay type: biochemical; details: read-out: A: Enzymatic GRK2: IC50 (nM) (Example 8)
Summary of the method: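 GRK2 (15 nM 2× enzyme solution) was preincubated 15 min with compound, then reacted 180 min at room temperature with 2× mix of 20 μM ATP plus GRKtide in HEPES pH 7.5, MgCl2, Tween-20, DTT. ADP was detected by ADP-Glo luminescence. Percent inhibition was normalised to enzyme and no-enzyme controls, with dose-response curves from threefold dilutions starting at 100 μM.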

[4] = Enzyme Assay B, TR-FRET (Example 7)
[5] = Enzyme Assay A, ADPGlo (Example 8)

| IC50 (GRK2 [1]; [4]) | IC50 (GRK2 [1]; TR-FRET GRK2 enzyme assay) | IC50 (GRK2 [3]; ADPGlo GRK2 enzyme assay) | IC50 (GRK2 [3]; [5]) | SMILES | IC50 [2] |
| --- | --- | --- | --- | --- | --- |
| 15 nM |  |  |  | CCc1cnccc1CNC(=O)c1ccnc(NCc2nnc(-c3ccncn3)n2C)c1 |  |
| 170 nM |  |  |  | CN(C)CCCn1c(CNc2cccc(C(=O)NCc3c(F)cccc3F)c2)nnc1-c1ccncn1 |  |
|  | 3.5 nM |  |  | Cn1c(CNc2cccc(C(=O)N[C@@H](C#N)c3ccccc3C(F)(F)F)c2)nnc1-c1ccncn1 |  |
| 2.4 nM |  |  |  | COc1ncccc1CNC(=O)c1cccc(NCc2nnc(-c3ccncn3)n2CCO)c1 |  |
|  | 3.4 nM |  |  | Cn1c(CNc2cccc(C(=O)N[C@H]3COc4ccccc43)c2)nnc1-c1ccncn1 [drawing 850] |  |
|  | 190 nM |  |  | CCc1cnccc1CNC(=O)c1cccc(NCc2nnc(-c3ccncn3)n2[C@H]2CC[C@@H](NC)C2)c1 |  |
|  | 920 nM |  |  | CCc1cnccc1CNC(=O)c1cccc(NCc2nnc(-c3ccncn3)n2[C@H]2CC[C@H](NC)C2)c1 |  |
| 1400 nM |  |  |  | CNCCn1c(CNc2cccc(C(=O)NCc3c(F)cccc3F)c2)nnc1-c1ccncn1 |  |
|  | 68 nM |  |  | COc1ccc([C@H](C#N)NC(=O)c2cccc(NCc3nnc(-c4ccncn4)n3C)c2)c(OC)c1 |  |
| 47 nM |  |  |  | O=C(NCc1c(F)cccc1F)c1cccc(NCc2nnc(-c3ccncn3)n2CCCO)c1 |  |
|  |  | 67.2 nM |  | CCC(NC(=O)c1cccc(NCc2nnc(-c3ccncn3)n2C)c1)c1ccccc1OCC(=O)NC (stereo not shown) | > 27800 nM |
|  |  |  | 12 nM | COc1cccc(C(C)NC(=O)c2cccc(NCc3nnc(-c4ccncn4)n3C)c2)c1 (stereo not shown) [drawing 381] | 377 nM |
|  |  |  | 15 nM | Cn1c(CNc2cccc(C(=O)NCc3cccc4c3OCCO4)c2)nnc1-c1ccncn1 | 2070 nM |
|  |  | 26.4 nM |  | Cn1c(CNc2cccc(C(=O)NC(CCO)c3ccccc3)c2)nnc1-c1ccncn1 (stereo not shown) | 1090 nM |
|  |  |  | 48 nM | O=C(NCc1nnc2n1CCCC2)c1cccc(NCc2nnc(-c3ccncc3)[nH]2)c1 | > 10000 nM |
|  |  |  | 19 nM | Cc1nn(C)cc1CNC(=O)c1cccc(NCc2nnc(-c3ccncn3)n2C)c1 | 6220 nM |
|  |  | 3.23 nM |  | [2H]C([2H])(Nc1cccc(C(=O)N[C@H]2CCOc3ccccc32)c1)c1nnc(-c2ccncn2)n1CCO | 94 nM |
|  |  | 26.9 nM |  | Cn1c(CNc2cccc(C(=O)NCc3ccccc3S(=O)(=O)N3CCCC3)c2)nnc1-c1ccncn1 | 2170 nM |
|  |  |  | 46 nM | COC[C@H](NC(=O)c1cccc(NCc2nnc(-c3ccncn3)n2C)c1)c1cccnc1 | 6110 nM |
|  |  |  | 70 nM | COc1ncccc1CNC(=O)c1cccc(NCc2nnc(-c3ccncn3)n2C)c1 | > 10000 nM |

| IC50 (GRK2 [1]; [4]) | IC50 (GRK2 [1]; TR-FRET GRK2 enzyme assay) | IC50 (GRK2 [3]; ADPGlo GRK2 enzyme assay) | IC50 (GRK2 [3]; [5]) | SMILES | IC50 [2] |
| --- | --- | --- | --- | --- | --- |
|  |  |  | 14 nM | Cn1c(CNc2cccc(C(=O)NC(CO)c3ccc(F)cc3)c2)nnc1-c1ccncn1 (stereo not shown) | > 30000 nM |
|  |  | 9.42 nM |  | Cn1c(CNc2cccc(C(=O)NCc3c(F)cccc3NS(C)(=O)=O)c2)nnc1-c1ccncn1 | 3250 nM |
|  |  | 26 nM |  | Cc1cccnc1[C@@H](C)NC(=O)c1cccc(NCc2nnc(-c3ccncn3)n2C)c1 | 3790 nM |
|  |  |  | 9.03 nM | Cn1c(CNc2cccc(C(=O)N[C@H]3COc4cc(F)ccc43)c2)nnc1-c1ccncn1 | > 30000 nM |
|  |  | 45.9 nM |  | CN1Cc2ccccc2C(NC(=O)c2cccc(NCc3nnc(-c4ccncn4)n3C)c2)C1 (stereo not shown) | 7670 nM |
|  |  | 47.2 nM |  | Cn1c(CNc2cccc(C(=O)NC3CCc4c(O)cccc43)c2)nnc1-c1ccncn1 (stereo not shown) | 8840 nM |
|  |  |  | 7.18 nM | O=C(N[C@H]1COCc2c(Cl)cccc21)c1cccc(NCc2nnc(-c3ccncc3)n2CCO)c1 | > 30000 nM |
|  |  | 9.97 nM |  | Cc1cc(C)n(C)c(=O)c1CNC(=O)c1cccc(NCc2nnc(-c3ccncn3)n2C)c1 | 1700 nM |
|  |  |  | 4.8 nM | O=C(N[C@@H]1COc2cc(F)ccc21)c1cccc(NCc2nnc(-c3ccncc3)n2CCO)c1 | 3130 nM |
|  |  | 17.5 nM |  | COc1cccc([C@H](C)NC(=O)c2cccc(NCc3nnc(-c4ccncc4)[nH]3)c2)c1 | > 30000 nM |
|  |  | 4.12 nM |  | COc1ncc(Br)cc1CNC(=O)c1cccc(NCc2nnc(-c3ccncn3)n2CCO)c1 | > 30000 nM |
|  |  |  | 19 nM | Cn1c(CNc2cccc(C(=O)NCc3ccc(F)cc3)c2)nnc1-c1ccncn1 | 2160 nM |
|  |  |  | 350 nM | CC(C)c1ocnc1CNC(=O)c1cccc(NCc2nnc(-c3ccncn3)n2C)c1 | > 10000 nM |
|  |  |  | 11 nM | COC[C@H](NC(=O)c1cccc(NCc2nnc(-c3ccncc3)[nH]2)c1)c1ccccn1 | 405 nM |
|  |  |  | 23 nM | Cn1c(CNc2cccc(C(=O)NCc3ccon3)c2)nnc1-c1ccncn1 | > 30000 nM |
|  |  |  | 20 nM | Cn1c(CNc2cccc(C(=O)NCc3ccccc3)c2)nnc1-c1ccncn1 | > 10000 nM |
|  |  |  | 50 nM | Cc1ccncc1C(C)NC(=O)c1cccc(NCc2nnc(-c3ccncn3)n2C)c1 (stereo not shown) | 537 nM |
|  |  |  | 10.9 nM | O=C(N[C@H]1COCc2ccccc21)c1cccc(NCc2nnc(-c3ccncc3)n2CCO)c1 | 41.6 nM |
|  |  |  | 45 nM | O=C(NCc1nncn1C1CC1)c1cccc(NCc2nnc(-c3ccncc3)[nH]2)c1 | > 10000 nM |
|  |  |  | 17 nM | CC(NC(=O)c1cccc(NCc2nnc(-c3ccncn3)n2C)c1)c1cnn(C)c1 (stereo not shown) | 190 nM |

| IC50 (GRK2 [1]; [4]) | IC50 (GRK2 [1]; TR-FRET GRK2 enzyme assay) | IC50 (GRK2 [3]; ADPGlo GRK2 enzyme assay) | IC50 (GRK2 [3]; [5]) | SMILES | IC50 [2] |
| --- | --- | --- | --- | --- | --- |
|  |  | 12.6 nM |  | CCCCCOc1ccc2c(c1)[C@@H](NC(=O)c1cccc(NCc3nnc(-c4ccncn4)n3C)c1)CCO2 | 2130 nM |
|  |  |  | 33 nM | Cc1ccccc1C(CO)NC(=O)c1cccc(NCc2nnc(-c3ccncn3)n2C)c1 (stereo not shown) | 8660 nM |
|  |  | 52 nM |  | Cn1c(CNc2cccc(C(=O)NCc3cc(S(C)(=O)=O)ccc3F)c2)nnc1-c1ccncn1 | > 16000 nM |
|  |  | 23 nM |  | Cn1c(CNc2cccc(C(=O)N[C@@H]3CCOc4ccccc43)c2)nnc1-c1ccncn1 | 227 nM |
|  |  | 14.1 nM |  | CCCn1c(CNc2cccc(C(=O)N[C@@H](C)c3cccc(OC)c3)c2)nnc1-c1ccncn1 | > 30000 nM |
|  |  |  | 22.7 nM | Cn1c(CNc2cccc(C(=O)N[C@@H]3COc4cc(F)ccc43)c2)nnc1-c1ccncc1F | 201 nM |
|  |  |  | 6.81 nM | Cn1c(CNc2cccc(C(=O)N[C@H]3COc4cc(F)ccc43)c2)nnc1-c1ccncc1 | > 7490 nM |
|  |  | 20 nM |  | COc1ccc(F)c(CNC(=O)c2cccc(NCc3nnc(-c4ccncn4)n3C)c2)c1 | 917 nM |
|  |  | 3.76 nM |  | [2H]C([2H])(Nc1cccc(C(=O)N[C@@H]2COc3ccccc32)c1)c1nnc(-c2ccncn2)n1CCO | 96 nM |
|  |  |  | 22 nM | CC1Cc2cc(CNC(=O)c3cccc(NCc4nnc(-c5ccncn5)n4C)c3)ccc2O1 (stereo not shown) [drawing 401] | 3370 nM |
|  |  | 39.1 nM |  | Cn1c(CNc2cccc(C(=O)NCc3ccccc3C(F)(F)F)c2)nnc1-c1ccncc1F | > 2320 nM |
|  |  | 11.4 nM |  | C[C@@H](NC(=O)c1cccc(NCc2nnc(-c3ccncc3)n2C)c1)c1ncccc1Cl | > 4780 nM |
|  |  |  | 61 nM | Cn1c(CNc2cccc(C(=O)NCc3cccc4cccnc34)c2)nnc1-c1ccncn1 [drawing 359] | 3640 nM |
|  |  | 11.2 nM |  | Cc1ccc(C)c(CNC(=O)c2cccc(NCc3nnc(-c4ccncn4)n3C)c2)n1 | > 30000 nM |
|  |  |  | 15 nM | COc1cccc2c1CCC2NC(=O)c1cccc(NCc2nnc(-c3ccncn3)n2C)c1 (stereo not shown) | 543 nM |
|  |  | 14.9 nM |  | Cc1cc(C)c(CNC(=O)c2cccc(NCc3nnc(-c4ccncn4)n3C)c2)c(=O)[nH]1 | > 30000 nM |
|  |  |  | 9.28 nM | O=C(N[C@@H]1COCc2ccccc21)c1cccc(NCc2nnc(-c3ccncc3)n2CCO)c1 | > 30000 nM |
|  |  | 11.6 nM |  | COc1cccc([C@H](C)NC(=O)c2cccc(NCc3nnc(-c4ccncc4F)n3C)c2)c1 | > 30000 nM |

From patent US20230009608A1, “GRK2 INHIBITORS AND USES THEREOF” (Cygnal Therapeutics, Inc., priority 2020, published 2023)
